Measurements published in ChEMBL document CHEMBL5465560, “Selectivity Literature for EUbOPEN Chemogenomic Library” (2024).

What was measured:
[1] = molecular target: Cyclin-dependent kinase 7 (Homo sapiens, UniProt P50613); experiment: Selectivity interaction (Kinase panel (KiNativ target engagement assay in Jurkat cells)) EUB0001635a CDK7; assay type: cell-based; conditions: Selectivity number of off-targets 0.0, Selectivity number of targets 233.0, Source Knowledge https://www.sciencedirect.com/science/article/pii/S2451945619300674?via%3Dihub, at 1 µM
[2] = molecular target: Serine/threonine-protein kinase PAK 2 (Homo sapiens) (UniProt Q13177); experiment: Selectivity interaction (KinomeScan (DiscoverX)) EUB0000595a PAK2; conditions: at 10 µM
[3] = molecular target: Serine/threonine-protein kinase PAK 4 (Homo sapiens, UniProt O96013); experiment: Selectivity interaction (KinomeScan (DiscoverX)) EUB0000695a PAK4; conditions: at 100 nM
[4] = molecular target: T1, Serine/threonine-protein kinase ULK2 (Homo sapiens) (UniProt Q8IYT8); experiment: Selectivity interaction (KinomeScan (DiscoverX)) EUB0000695a ULK2; conditions: at 100 nM
T1 sequence (whole entry): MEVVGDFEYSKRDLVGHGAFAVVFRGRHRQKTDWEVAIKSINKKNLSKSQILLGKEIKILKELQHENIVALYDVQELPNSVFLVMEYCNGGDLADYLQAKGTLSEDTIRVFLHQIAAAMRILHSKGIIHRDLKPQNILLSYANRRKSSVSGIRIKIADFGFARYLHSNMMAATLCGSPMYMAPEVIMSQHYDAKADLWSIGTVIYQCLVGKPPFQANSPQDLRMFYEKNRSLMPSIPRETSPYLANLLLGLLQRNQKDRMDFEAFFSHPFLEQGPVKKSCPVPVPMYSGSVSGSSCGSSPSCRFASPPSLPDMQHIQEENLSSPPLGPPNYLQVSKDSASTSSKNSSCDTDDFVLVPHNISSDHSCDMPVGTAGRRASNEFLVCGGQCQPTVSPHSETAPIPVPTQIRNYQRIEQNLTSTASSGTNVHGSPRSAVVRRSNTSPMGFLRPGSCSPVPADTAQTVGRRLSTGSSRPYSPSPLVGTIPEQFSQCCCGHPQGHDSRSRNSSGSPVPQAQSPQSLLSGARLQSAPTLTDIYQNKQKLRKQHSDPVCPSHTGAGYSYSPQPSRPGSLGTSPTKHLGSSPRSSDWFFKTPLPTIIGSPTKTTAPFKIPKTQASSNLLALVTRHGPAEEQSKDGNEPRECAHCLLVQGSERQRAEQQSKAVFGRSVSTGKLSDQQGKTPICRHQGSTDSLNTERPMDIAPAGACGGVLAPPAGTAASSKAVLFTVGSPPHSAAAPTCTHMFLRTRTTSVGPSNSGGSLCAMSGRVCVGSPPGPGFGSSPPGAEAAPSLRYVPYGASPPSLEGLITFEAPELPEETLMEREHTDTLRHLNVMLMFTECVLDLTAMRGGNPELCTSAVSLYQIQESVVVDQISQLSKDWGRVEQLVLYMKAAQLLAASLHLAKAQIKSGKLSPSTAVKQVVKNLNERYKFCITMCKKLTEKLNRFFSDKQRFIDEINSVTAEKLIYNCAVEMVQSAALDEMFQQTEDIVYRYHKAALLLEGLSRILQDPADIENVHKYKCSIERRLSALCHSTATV

[5] = molecular target: Serine/threonine-protein kinase WNK4 (Homo sapiens) (UniProt Q96J92); experiment: Selectivity interaction (KinomeScan (DiscoverX)) EUB0000695a WNK4; conditions: at 100 nM
[6] = molecular target: T2, Testis-specific serine/threonine-protein kinase 2 (Homo sapiens) (UniProt Q96PF2); experiment: Selectivity interaction (ProQinase) EUB0000171b TSSK2
T2 sequence (whole entry): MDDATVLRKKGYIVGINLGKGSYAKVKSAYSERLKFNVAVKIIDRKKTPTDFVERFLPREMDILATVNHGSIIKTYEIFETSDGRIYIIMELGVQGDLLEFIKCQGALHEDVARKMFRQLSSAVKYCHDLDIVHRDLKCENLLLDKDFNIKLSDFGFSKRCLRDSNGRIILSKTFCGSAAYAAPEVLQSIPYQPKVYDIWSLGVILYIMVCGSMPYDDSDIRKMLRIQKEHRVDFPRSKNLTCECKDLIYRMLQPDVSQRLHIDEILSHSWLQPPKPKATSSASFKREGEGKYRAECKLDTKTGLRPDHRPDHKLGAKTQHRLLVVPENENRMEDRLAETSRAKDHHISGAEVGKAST

[7] = molecular target: Receptor-type tyrosine-protein kinase FLT3 (Homo sapiens) (UniProt P36888); experiment: Selectivity interaction (ProQinase) EUB0000171b FLT3; conditions: at 1 µM
[8] = molecular target: Macrophage colony-stimulating factor 1 receptor (Homo sapiens) (UniProt P07333); experiment: Selectivity interaction (Kinase panel (Carna Biosciences)) EUB0001542aTs CSF1R; conditions: at 1 µM
[9] = molecular target: DNA (cytosine-5)-methyltransferase 3A (Homo sapiens) (UniProt Q9Y6K1); experiment: Selectivity interaction (Methyltransferase screen (Scintillation proximity assays)) EUB0000255b DNMT3A
[10] = molecular target: T3, Tyrosine-protein kinase receptor TYRO3 (Homo sapiens) (UniProt Q06418); experiment: Selectivity interaction (KinomeScan (DiscoverX)) EUB0000092b TYRO3; conditions: at 10 µM
T3 sequence (whole entry): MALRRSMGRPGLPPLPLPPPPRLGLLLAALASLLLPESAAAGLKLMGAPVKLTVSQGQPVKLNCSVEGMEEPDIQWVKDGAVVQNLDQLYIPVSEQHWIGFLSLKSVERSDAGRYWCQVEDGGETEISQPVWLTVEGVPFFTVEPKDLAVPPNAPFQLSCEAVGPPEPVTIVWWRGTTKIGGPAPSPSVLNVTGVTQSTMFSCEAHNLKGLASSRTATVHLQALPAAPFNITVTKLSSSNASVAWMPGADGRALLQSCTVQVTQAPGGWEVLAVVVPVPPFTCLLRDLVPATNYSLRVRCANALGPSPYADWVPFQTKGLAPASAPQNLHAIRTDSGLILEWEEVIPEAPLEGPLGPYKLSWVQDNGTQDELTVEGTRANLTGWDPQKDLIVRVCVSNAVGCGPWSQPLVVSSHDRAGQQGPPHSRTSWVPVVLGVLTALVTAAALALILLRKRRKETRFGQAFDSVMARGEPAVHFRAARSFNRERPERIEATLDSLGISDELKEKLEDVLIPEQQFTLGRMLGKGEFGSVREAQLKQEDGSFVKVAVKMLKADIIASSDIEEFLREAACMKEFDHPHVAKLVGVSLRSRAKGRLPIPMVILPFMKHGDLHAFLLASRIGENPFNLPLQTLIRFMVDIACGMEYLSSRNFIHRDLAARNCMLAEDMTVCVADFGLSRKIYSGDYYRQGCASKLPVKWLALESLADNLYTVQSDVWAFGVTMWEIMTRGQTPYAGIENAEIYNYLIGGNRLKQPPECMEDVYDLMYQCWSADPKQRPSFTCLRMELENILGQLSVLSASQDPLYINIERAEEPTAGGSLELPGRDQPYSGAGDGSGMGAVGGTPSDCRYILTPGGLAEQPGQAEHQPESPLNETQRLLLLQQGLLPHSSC

DNA (cytosine-5)-methyltransferase 3A (Homo sapiens), sequence (Q9Y6K1 whole entry, looked up): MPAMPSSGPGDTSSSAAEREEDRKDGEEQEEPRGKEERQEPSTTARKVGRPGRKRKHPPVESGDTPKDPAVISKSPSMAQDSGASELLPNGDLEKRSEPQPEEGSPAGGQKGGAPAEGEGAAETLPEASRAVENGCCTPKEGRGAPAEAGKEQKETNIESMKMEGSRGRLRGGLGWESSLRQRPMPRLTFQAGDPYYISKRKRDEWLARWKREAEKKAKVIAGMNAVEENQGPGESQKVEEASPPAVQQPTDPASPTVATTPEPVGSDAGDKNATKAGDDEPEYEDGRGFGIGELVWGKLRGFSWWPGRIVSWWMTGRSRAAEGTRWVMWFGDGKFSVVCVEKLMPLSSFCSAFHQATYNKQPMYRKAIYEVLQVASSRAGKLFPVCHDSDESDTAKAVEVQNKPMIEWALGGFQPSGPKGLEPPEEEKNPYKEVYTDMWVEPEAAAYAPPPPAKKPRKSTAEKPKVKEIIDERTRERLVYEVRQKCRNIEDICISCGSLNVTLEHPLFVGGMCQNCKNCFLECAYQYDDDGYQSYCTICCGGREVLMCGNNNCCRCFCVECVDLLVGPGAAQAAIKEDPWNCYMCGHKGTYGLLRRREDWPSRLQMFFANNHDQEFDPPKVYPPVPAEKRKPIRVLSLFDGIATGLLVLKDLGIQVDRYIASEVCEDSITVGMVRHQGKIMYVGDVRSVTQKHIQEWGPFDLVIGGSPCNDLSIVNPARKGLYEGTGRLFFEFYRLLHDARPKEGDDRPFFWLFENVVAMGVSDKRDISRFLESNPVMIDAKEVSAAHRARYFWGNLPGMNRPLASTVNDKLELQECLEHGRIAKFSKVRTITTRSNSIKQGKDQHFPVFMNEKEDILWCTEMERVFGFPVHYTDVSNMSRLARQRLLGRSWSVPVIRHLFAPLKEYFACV
Serine/threonine-protein kinase PAK 2 (Homo sapiens), sequence (Q13177 whole entry): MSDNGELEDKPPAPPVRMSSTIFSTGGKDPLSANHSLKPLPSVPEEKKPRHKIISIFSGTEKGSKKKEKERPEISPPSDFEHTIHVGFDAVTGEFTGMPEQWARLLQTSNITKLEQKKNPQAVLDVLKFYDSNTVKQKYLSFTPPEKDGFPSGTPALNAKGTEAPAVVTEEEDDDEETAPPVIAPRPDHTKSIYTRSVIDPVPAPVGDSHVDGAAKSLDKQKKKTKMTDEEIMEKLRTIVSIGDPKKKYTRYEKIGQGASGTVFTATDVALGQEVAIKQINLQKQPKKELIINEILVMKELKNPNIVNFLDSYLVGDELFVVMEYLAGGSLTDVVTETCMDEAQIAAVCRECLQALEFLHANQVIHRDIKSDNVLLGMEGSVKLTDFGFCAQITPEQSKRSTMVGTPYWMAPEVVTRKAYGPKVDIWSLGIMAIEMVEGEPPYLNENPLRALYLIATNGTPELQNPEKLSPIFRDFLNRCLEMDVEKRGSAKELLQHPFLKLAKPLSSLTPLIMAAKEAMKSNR
Serine/threonine-protein kinase PAK 4, sequence (O96013 whole entry, looked up): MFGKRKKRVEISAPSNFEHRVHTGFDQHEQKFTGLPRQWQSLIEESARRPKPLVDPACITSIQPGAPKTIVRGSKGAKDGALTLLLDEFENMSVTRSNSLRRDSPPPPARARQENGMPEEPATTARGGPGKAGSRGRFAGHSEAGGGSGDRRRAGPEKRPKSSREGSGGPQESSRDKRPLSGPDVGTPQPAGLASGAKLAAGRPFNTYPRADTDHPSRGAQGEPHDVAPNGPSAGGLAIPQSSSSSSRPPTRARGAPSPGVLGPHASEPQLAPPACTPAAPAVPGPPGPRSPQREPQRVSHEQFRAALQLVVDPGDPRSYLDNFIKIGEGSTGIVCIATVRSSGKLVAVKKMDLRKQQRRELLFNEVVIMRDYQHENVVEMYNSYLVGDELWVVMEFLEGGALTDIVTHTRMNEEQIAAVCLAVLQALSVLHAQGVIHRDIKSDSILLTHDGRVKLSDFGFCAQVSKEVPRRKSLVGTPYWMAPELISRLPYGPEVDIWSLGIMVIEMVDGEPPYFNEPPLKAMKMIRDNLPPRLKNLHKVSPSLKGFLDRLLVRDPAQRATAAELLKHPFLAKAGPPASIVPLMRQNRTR
Cyclin-dependent kinase 7, sequence (P50613 whole entry): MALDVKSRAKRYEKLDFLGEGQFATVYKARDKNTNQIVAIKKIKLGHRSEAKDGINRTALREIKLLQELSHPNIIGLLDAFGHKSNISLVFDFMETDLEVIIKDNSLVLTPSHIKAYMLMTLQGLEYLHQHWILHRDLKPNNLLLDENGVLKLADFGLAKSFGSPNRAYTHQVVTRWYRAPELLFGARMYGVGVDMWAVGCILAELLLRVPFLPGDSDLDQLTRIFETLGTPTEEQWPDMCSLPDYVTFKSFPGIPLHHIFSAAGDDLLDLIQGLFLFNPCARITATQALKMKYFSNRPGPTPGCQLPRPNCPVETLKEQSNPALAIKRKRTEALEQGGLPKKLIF
Macrophage colony-stimulating factor 1 receptor (Homo sapiens), sequence (P07333 whole entry): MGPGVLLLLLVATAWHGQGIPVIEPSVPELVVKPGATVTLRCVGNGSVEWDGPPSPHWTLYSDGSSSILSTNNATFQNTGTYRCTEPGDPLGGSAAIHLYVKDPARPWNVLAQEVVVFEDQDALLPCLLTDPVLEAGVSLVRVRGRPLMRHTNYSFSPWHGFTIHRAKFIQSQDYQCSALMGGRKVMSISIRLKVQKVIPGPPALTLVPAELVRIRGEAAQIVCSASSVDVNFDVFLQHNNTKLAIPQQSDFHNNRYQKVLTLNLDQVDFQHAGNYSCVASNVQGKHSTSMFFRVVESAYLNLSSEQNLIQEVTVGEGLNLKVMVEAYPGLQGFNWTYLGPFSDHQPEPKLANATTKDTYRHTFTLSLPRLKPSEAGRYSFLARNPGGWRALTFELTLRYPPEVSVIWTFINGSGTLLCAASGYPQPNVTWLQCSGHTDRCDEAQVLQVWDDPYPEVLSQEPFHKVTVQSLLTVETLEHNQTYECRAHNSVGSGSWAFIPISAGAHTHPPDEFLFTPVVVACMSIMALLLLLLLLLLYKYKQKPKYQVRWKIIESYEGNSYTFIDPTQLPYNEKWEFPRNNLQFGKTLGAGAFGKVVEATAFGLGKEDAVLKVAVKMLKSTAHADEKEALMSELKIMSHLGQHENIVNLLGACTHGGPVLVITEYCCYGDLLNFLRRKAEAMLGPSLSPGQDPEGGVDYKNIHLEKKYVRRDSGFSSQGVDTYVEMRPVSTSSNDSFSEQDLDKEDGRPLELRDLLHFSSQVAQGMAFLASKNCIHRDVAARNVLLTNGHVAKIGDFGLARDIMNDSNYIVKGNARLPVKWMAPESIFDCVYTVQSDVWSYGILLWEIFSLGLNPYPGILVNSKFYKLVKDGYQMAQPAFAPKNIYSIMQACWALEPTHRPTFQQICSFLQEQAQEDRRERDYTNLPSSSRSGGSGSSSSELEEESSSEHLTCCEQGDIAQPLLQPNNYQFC
Serine/threonine-protein kinase WNK4 (Homo sapiens), sequence (Q96J92 whole entry): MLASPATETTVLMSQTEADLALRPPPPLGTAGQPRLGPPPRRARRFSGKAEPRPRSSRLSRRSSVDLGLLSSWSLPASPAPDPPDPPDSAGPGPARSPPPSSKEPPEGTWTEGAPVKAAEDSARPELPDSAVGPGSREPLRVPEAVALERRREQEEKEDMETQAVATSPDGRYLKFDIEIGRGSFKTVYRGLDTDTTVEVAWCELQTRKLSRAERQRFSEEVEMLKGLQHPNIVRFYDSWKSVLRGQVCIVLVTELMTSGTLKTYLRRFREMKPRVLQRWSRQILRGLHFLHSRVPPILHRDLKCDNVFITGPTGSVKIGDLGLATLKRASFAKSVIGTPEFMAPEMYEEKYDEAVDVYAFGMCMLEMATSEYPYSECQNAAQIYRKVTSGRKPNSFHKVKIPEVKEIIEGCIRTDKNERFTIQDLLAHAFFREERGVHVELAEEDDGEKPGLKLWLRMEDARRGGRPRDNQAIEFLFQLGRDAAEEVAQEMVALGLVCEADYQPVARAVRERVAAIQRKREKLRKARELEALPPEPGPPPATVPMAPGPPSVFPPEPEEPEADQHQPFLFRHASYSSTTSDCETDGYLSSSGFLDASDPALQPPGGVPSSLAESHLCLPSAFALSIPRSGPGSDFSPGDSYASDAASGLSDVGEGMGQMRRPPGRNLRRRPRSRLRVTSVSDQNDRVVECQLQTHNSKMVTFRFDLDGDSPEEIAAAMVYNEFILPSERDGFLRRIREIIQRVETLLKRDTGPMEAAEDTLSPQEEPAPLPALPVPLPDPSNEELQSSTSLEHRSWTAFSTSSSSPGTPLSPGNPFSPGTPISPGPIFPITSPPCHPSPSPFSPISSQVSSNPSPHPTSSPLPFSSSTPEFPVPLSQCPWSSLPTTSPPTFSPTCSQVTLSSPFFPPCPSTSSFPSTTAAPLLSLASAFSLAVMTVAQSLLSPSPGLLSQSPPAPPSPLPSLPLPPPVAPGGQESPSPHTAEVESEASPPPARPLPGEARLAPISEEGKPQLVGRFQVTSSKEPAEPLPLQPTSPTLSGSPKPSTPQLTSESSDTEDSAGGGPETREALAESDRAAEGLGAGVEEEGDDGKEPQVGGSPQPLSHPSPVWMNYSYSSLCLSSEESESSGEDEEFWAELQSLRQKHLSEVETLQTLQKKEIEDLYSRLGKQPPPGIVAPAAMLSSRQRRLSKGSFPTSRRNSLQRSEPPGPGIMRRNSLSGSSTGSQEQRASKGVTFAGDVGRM

With `C=CC(=O)Nc1ccc(C(=O)Nc2[nH]nc3c2CN(C(=O)N[C@H](CN(C)C)c2ccccc2)C3(C)C)cc1` as the molecule, how does the % of engagement [1] read?
Its % of engagement is 93.3%.

Which % of control [2] does the source give for `COCC(=O)NC/C=C/c1ccc2ncnc(Nc3ccc(Oc4ccc(C)nc4)c(C)c3)c2c1` [CP-724714] here?
Its % of control is 87%.

`Cc1cc(F)c(C(=O)Nc2cccc(-c3nncn3C(C)C)n2)cc1-n1cnc(C2CC2)c1` was tested. Which % of control [3] did it give?
Its % of control is 99%.

And the % of control [4]?
The % of control was 91%.

What about the % of control [5] of the same molecule?
The % of control was 100%.

Which results are given for `C=CC(=O)Nc1cccc(C(=O)Nc2ccc(Nc3cc(-c4[nH]c(SC)nc4C)ccn3)cc2)c1`?
% of control ([6]; at 1 µM): 90%; % of control ([6]; at 5 µM): 97%; % of control [7]: 94%

With `Cn1cc(Nc2nccc(N3CC4CCC(C3)N4C(=O)[C@@H]3CC3(F)F)n2)cn1` as the molecule, how does the % of inhibition [8] read?
The % of inhibition was 59%.

Which results are given for `COCCN1CCC(c2cc(CN(C)C(=O)c3cccc(Oc4ccccc4)c3)ccn2)CC1`?
% activity ([9]; at 1 µM): > 95%; % activity ([9]; at 10 µM): > 85%

How did the % of control [10] turn out when `CCC(=O)N1CCN(c2ccc(-n3c(=O)ccc4cnc5ccc(-c6cnc7ccccc7c6)cc5c43)cc2C(F)(F)F)CC1` was run?
Its % of control is 31%.
